{"source": "patent US12364699B2", "about": "“Method of treating hair loss disorders” (Sun Pharmaceutical Industries, Inc., priority 2023, dated 2025)", "key": {"plasma protein": {"test_system": "plasma protein", "experiment": "Renal impairment study: plasma protein binding of CTP-543", "format": "in vitro ADME, human", "details": "2 hours post-dose; moderate renal impairment vs matched controls with normal renal function", "excerpt": "(§1) All subjects had samples collected for PK."}, "[1]": {"experiment": "Renal impairment study: single dose PK of CTP-543 and metabolites C-21714, C-21717", "details": "single 12 mg oral dose of CTP-543; normal renal function N = 8; geometric mean (geometric CV %)", "excerpt": "The study enrolled 8 subjects in the normal renal function cohort, and 8 subjects in the moderate impaired renal function cohort.\nThe primary endpoint of this study was single dose PK exposure parameters: Cmax, AUC(0-Tlast), and AUC(0-∞).\nThe secondary endpoints of this study were: • Adverse Events, clinical laboratory findings, physical examinations, ECGs, and vital signs. • Other PK parameters, such as, but not limited to: Tmax, λz, t1/2, CL/F, and Vz/F.\nas §1\nPK parameters were determined using non-compartmental analysis (NCA) methods based on individual plasma concentration-time data for all PK analytes."}, "subjects with AA [2]": {"test_system": "subjects with AA", "experiment": "Open-label extension (OLE) studies: safety", "format": "in vivo, human", "excerpt": "(§2) The qualifying clinical trials including the following: 1. NCT03137381; 2. NCT03811912; 3. NCT03941548; 4. NCT04784533; 5. NCT04518995; and 6. NCT04797650 (all available a at https://clinicaltrials.gov)."}, "[3]": {"test_system": "adult subjects with moderate to severe AA", "experiment": "Phase III trial: Hair Satisfaction Patient Reported Outcome (SPRO)", "format": "in vivo, human", "details": "for percentage of subjects with a ≥2 point change from baseline on SPRO: 12 mg BID", "excerpt": "The SPRO is a single-item questionnaire answered by the subject and designed to measure how satisfied Alopecia Areata subjects are with their hair at the time of the assessment. Subjects answer questions on a scale of 1 to 5, representing “Very satisfied” to “Very dissatisfied.” Satisfaction categories 1-5 of the scale were defined as follows: 1=“Very Satisfied”; 2=“Satisfied”; 3=“Neither Satisfied nor Dissatisfied”; 4=Dissatisfied”; and 5=“Very Dissatisfied”.\nThe results of the SPRO was analyzed in three different ways: 1) the percentage of responders, 2) the change from baseline, and 3) the percentage of subjects achieving a ≥2.0 point change from baseline.\nA Phase III trial was conducted to assess the efficacy and safety of CTP-543 in adult subjects with moderate to severe AA. Approximately 440 adult male and female subjects 18 to 65 years of age, inclusive, with moderate to severe AA participated in the study. Subjects with definitive diagnosis of AA, and at least 50% hair loss, as defined by a SALT score ≥50, who met all of the inclusion criteria and none of the exclusion criteria participated in the study.\nThe Screening Period lasted up to 28 days prior to initiation of study drug. […] Randomization was stratified by scalp hair loss into 1 of the following 2 categories: 1) partial scalp hair loss (SALT ≥50 and <95), 2) complete or near complete scalp hair loss (SALT ≥95).\nThe key secondary efficacy endpoints were the percentage of responders (defined as “satisfied” or “very satisfied”) on the Hair Satisfaction Patient Reported Outcome (SPRO) scale at Week 24, 20, 16, 12, and 8.\nThe Hair Satisfaction Patient Reported Outcome (SPRO) was also determined based on the 5-point SPRO scale from baseline through Week 24 among primary endpoint responders. The subjects that received a SALT score ≤20 at Week 24 in the THRIVE-AA1 and THRIVE-AA2 trials were included in the analysis. […]\nThe SPRO was evaluated in 3 different ways: the percentage of responders, the change from baseline, and the percentage of subjects achieving a ≥2.0 point change from baseline."}, "subjects with AA [4]": {"test_system": "subjects with AA", "experiment": "Open-label extension (OLE) studies: SALT score", "format": "in vivo, human", "details": "12 mg BID in OLE, placebo in the earlier studies, 52 weeks", "excerpt": "Subjects completing 24 weeks of treatment with […]\nas §2\nThe OLE Efficacy Population is defined as all subjects who received at least one dose of deuruxolitinib and had at least one post-baseline SALT assessment in OLE. The data analyses include subjects' data from the qualifying trial. Missing SALT scores were not imputed. The number of subjects decreases over time due to missing data, patient discontinuations, or subjects not yet at the later timepoints. Any SALT data after a qualifying dose change in the OLE was censored for all figures included here, except those showing the overall treatment sequence. A “qualifying dose change” referred to herein can be placebo in any qualifying trial to any dose of deuruxolitinib in the OLE (includes subjects who switched doses), or any dose of deuruxolitinib in a qualifying trial to any dose of deuruxolitinib in the OLE. Various analyses using SALT scores were conducted to best estimate the overall long-term effect of deuruxolitinib considering the issues with dose changes and decreasing patient numbers over time. “Any Dose” analysis tracks all active subjects over time pooled across the two doses. […]"}}}
{"smiles": "[2H]C1([2H])C([C@@H](CC#N)n2cc(-c3ncnc4[nH]ccc34)cn2)C([2H])([2H])C([2H])([2H])C1([2H])[2H]", "note": "[CTP-543, (R)-3-(4-(7H-pyrrolo[2,3-d]pyrimidin-4-yl)-1H-pyrazol-1-yl)-3-(cyclopentyl-2,2,3,3,4,4,5,5-d8) propanenitrile]", "values": [{"measurement": "plasma protein binding, difference between cohorts", "setting": "plasma protein", "result": "no meaningful differences"}, {"measurement": "Clast", "setting": "[1]", "result": "0.898 (116.3) ng/mL"}, {"measurement": "number of serious treatment-related TEAEs", "setting": "subjects with AA [2]; OLE studies", "result": "remains low"}, {"measurement": "tolerability", "setting": "subjects with AA [2]; OLE studies", "result": "generally well tolerated"}, {"measurement": "subjects with related thrombotic events", "setting": "subjects with AA [2]; all at the 12 mg BID dose, following ≥52 weeks of dosing", "result": "four"}, {"measurement": "treatment-emergent adverse event findings", "setting": "subjects with AA [2]; integrated analyses", "result": "consistent with the safety profiles observed for other JAK inhibitors"}, {"measurement": "SPRO Responders: Yes", "setting": "[3]; 12 mg BID (N = 127), Week 24, non-missing data", "result": "62 (51.7) n (%)"}, {"measurement": "percentage of subjects with a ≥2 point change from baseline on SPRO", "setting": "[3]; week 16, non-missing data", "result": 57.4, "unit": "%"}, {"measurement": "percentage of subjects with a ≥2 point change from baseline on SPRO", "setting": "[3]; week 24, non-missing data", "result": 61.7, "unit": "%"}, {"measurement": "mean SALT score", "setting": "subjects with AA [4]", "result": 43.0}]}
